According to US6177431A, “Tetrahydropyrimidine derivatives” (priority 1996, dated 2001):
Read-outs that look alike come from different tables or passages of the source.

Tests used:
[1] = system: caterpillars of the owlet moth (Spodoptera frugiperda); assay: Spodoptera frugiperda test; type: in vivo; conditions: for destruction: after 3 days, active compound concentration 0.001%, cabbage leaves dipped; for mortality at 0.001 %: Spodoptera frugiperda, in Brassica oleracea, 72 h, read-out: destruction
[2] = system: mustard beetle larvae (Phaedon cochleariae); assay: Phaedon larvae test; conditions: for mortality at 0.001 %: Phaedon cochleariae, in Brassica oleracea, 72 h, read-out: destruction
[3] = system: caterpillars of the diamondback moth (Plutella maculipennis); assay: Plutella test; type: in vivo; conditions: for mortality at 0.01 %: Plutella, in Brassica oleracea, 72 h, read-out: destruction
Text: (§1) Solvent: 7 parts by weight of dimethylformamide

[4] = system: larvae of the green rice leaf hopper (Nephotettix cincticeps); assay: Nephotettix test; type: in vivo; conditions: 144 h, read-out: destruction
Text: as §1

[5] = system: green peach aphids (Myzus persicae); assay: Myzus test; type: in vivo; conditions: for mortality at 0.001 %: Myzus persicae, 24 h, read-out: destruction
Text: as §1

[6] = Lg. P, octanol/water partition coefficient determined by reversed phase HPLC; type: physicochemical
Text: *^) Lg. P = Logarithm of the partition coefficient P of the substance
between the solvents octanol and water, determined experimentally by […]

[7] = after 1 day, active compound concentration 0.001%, infested broad bean seedlings dipped
[8] = octanol/water, determined experimentally by reversed phase HPLC, read-out: Lg. P (logarithm of the partition coefficient P)

SMILES	mortality at 0.001 % [1]	mortality at 0.001 % [2]	mortality at 0.0001 % [4]	mortality at 0.01 % [3]	also measured
CCC(C)(C)N1CC([N+](=O)[O-])=C2N(Cc3cnc(Cl)s3)CCN2C1 [(A), reference compound]	–	–	–	–	destruction [1]: no action; destruction ([2]; after 3 days, active compound concentration 0.001%, cabbage leaves dipped): no action
COC(CN1CC([N+](=O)[O-])=C2N(Cc3cnc(Cl)s3)CCN2C1)OC [(B), reference compound]	30%	30%	–	–	–
CCCCCCN1CC([N+](=O)[O-])=C2N(Cc3cnc(Cl)s3)CCN2C1 [(C), reference compound]	30%	40%	–	–	–
CN1CC([N+](=O)[O-])=C2N(Cc3cnc(Cl)s3)CCN2C1 [(D), reference compound]	–	–	–	–	destruction [1]: no action
CCOC(=O)CCN1CC([N+](=O)[O-])=C2N(Cc3ccc(Cl)nc3)CCN2C1 [(E), reference compound]	–	20%	20%	–	destruction ([3]; after 3 days, active compound concentration 0.01%, cabbage leaves dipped): no action; mortality at 0.001 % ([5]; in Vicia faba): 10%
O=[N+]([O-])C1=C2N(Cc3ccc(Cl)nc3)CCN2CN(Cc2ccc(Cl)cc2)C1 [(F), reference compound]	–	–	–	–	destruction [5, 7]: no action; destruction [1]: no action
CCOC(=O)CN1CC([N+](=O)[O-])=C2N(Cc3ccc(Cl)nc3)CCN2C1 [(G), reference compound]	30%	–	–	–	–
COC(=O)CN1CC([N+](=O)[O-])=C2N(Cc3ccc(Cl)nc3)CCN2C1 [Example 1, 6,7-dihydro-1-(2-chloropyridin-5-yl-methyl)-6-methoxycarbonyl-methyl-8-nitro-(5H)-imidazolidino-[2,3-f]-pyrimidine]	–	100%	–	100%	mortality at 0.001 % ([5]; in Vicia faba): 99%
O=C(CN1CC([N+](=O)[O-])=C2N(Cc3ccc(Cl)nc3)CCN2C1)Nc1ccccc1 [Example 3]	–	100%	–	–	–
O=C(O)CCCCCN1CC([N+](=O)[O-])=C2N(Cc3ccc(Cl)nc3)CCN2C1 [Example 4]	–	100%	–	–	mortality at 0.001 % ([5]; in Vicia faba): 80%; chromatographic logP ([6]; reversed phase hplc): 1.07
CCOC(=O)CCCN1CC([N+](=O)[O-])=C2N(Cc3ccc(Cl)nc3)CCN2C1 [Example 5]	–	–	–	–	chromatographic logP ([6]; reversed phase hplc): 0.94
COC(=O)CN1CC([N+](=O)[O-])=C2N(Cc3cnc(Cl)s3)CCN2C1 [Example 6]	–	–	100%	100%	mortality at 0.001 % ([5]; in Vicia faba): 90%
O=C(CN1CC([N+](=O)[O-])=C2N(Cc3ccc(Cl)nc3)CCN2C1)OCc1ccc(Cl)nc1 [Example 7]	–	100%	100%	–	–
CC(C)OC(=O)CN1CC([N+](=O)[O-])=C2N(Cc3ccc(Cl)nc3)CCN2C1 [Example 9]	100%	100%	100%	100%	–
Cc1ccc(COC(=O)CN2CC([N+](=O)[O-])=C3N(Cc4ccc(Cl)nc4)CCN3C2)cc1 [Example 10]	100%	100%	100%	100%	–
CCCCCCCCOC(=O)CN1CC([N+](=O)[O-])=C2N(Cc3ccc(Cl)nc3)CCN2C1 [Example 11]	100%	100%	–	100%	–
O=C(CN1CC([N+](=O)[O-])=C2N(Cc3ccc(Cl)nc3)CCN2C1)OCc1ccc(Cl)c(Cl)c1 [Example 12]	100%	100%	–	100%	–
O=C(CN1CC([N+](=O)[O-])=C2N(Cc3ccc(Cl)nc3)CCN2C1)OCc1c(Cl)cccc1Cl [Example 13]	–	–	–	100%	–
O=C(CN1CC([N+](=O)[O-])=C2N(Cc3ccc(Cl)nc3)CCN2C1)OCc1ccc(Cl)cc1Cl [Example 14]	100%	100%	100%	100%	–
COC(=O)CCCN1CC([N+](=O)[O-])=C2N(Cc3ccc(Cl)nc3)CCN2C1 [Example 15]	100%	–	100%	100%	mortality at 0.001 % ([5]; in Vicia faba): 98%; chromatographic logP ([6]; reversed phase hplc): 1.12
COC(=O)CCCN1CC([N+](=O)[O-])=C2N(Cc3cnc(Cl)s3)CCN2C1 [Example 16]	–	–	100%	–	mortality at 0.001 % [5, 7]: 90%; chromatographic logP [6, 8]: 1.13
CCOC(=O)CCCN1CC([N+](=O)[O-])=C2N(Cc3cnc(Cl)s3)CCN2C1 [Example 17]	–	–	100%	100%	chromatographic logP [6, 8]: 1.35
COC(=O)CCCCN1CC([N+](=O)[O-])=C2N(Cc3ccc(Cl)nc3)CCN2C1 [Example 19]	100%	100%	–	100%	mortality at 0.001 % ([5]; in Vicia faba): 95%
COC(=O)CCCCCCCN1CC([N+](=O)[O-])=C2N(Cc3cnc(Cl)s3)CCN2C1 [Example 20]	100%	100%	–	–	mortality at 0.001 % [5, 7]: 100%
COC(=O)CCCCCCCN1CC([N+](=O)[O-])=C2N(Cc3ccc(Cl)nc3)CCN2C1 [Example 21]	–	–	–	100%	chromatographic logP [6, 8]: 1.73
CC(C)OC(=O)CCN1CC([N+](=O)[O-])=C2N(Cc3ccc(Cl)nc3)CCN2C1 [Example 23]	–	100%	–	–	chromatographic logP ([6]; reversed phase hplc): 1.51
CCOC(=O)C(Cc1ccccc1)N1CC([N+](=O)[O-])=C2N(Cc3ccc(Cl)nc3)CCN2C1 (stereo not shown) [Example 27]	–	–	–	–	chromatographic logP [6, 8]: 1.99
COC(=O)C(C(C)C)N1CC([N+](=O)[O-])=C2N(Cc3ccc(Cl)nc3)CCN2C1 (stereo not shown) [Example 28]	–	–	–	–	chromatographic logP ([6]; reversed phase hplc): 1.55
